Laboratory results published in patent US8951961B2, “Structural and mechanistic basis for novel compound biosynthesis using 4-electron hexose oxidase” (Academia Sinica, priority 2009, dated 2015).
Values after ≈ are worked out from the molar mass of the structure shown.

What was measured:
[1] = test system: E. faecalis ATCC 29302; assay: Minimum Inhibition Concentrations (MICs) Test; type: cell-based, Enterococcus Faecalis; details: Enterococcus faecalis, ATCC29302
[2] = test system: S. Aureus ATCC 29213; assay: Minimum Inhibition Concentrations (MICs) Test; type: cell-based, Staphylococcus Aureus; details: Staphylococcus aureus, ATCC29213
[3] = test system: E. faecalis (ATCC 51559); assay: In vivo animal study, sepsis in mice; design: species or system ICR female mice; details: 10 mg/kg/dose i.v. twice a day, day 1 to day 3
Description: 12 ICR female mice with an average body weight of 27 g to 30 g were used in this experiment. Mice had free access to water and food at all time. Sepsis was induced in mice by intravenous (i.v.) injection of […] cfu/mouse of E. faecalis (ATCC 51559) on day 0. The mice were randomized into the following four treatment groups at the start of the experiment:
Each mouse received 10 mg/kg/dose of the medication by intravenous route, twice a day from day 1 to day 3, for a total of 6 doses. Mice were anesthetized and blood was taken from the orbital sinus on day 1, day 2, and day 3. The blood sample was diluted with PBS, plated on Brain Heart infusion agar (BHI agar; Difico, Detroit, Mich., USA) and cultured for colony formation unit.
Data were expressed as mean±SD and the statistical analysis was performed using SigmaStat®. Differences were considered to be significant if the P value was <0.05.

[4] = test system: E. faecalis ATCC 700221; assay: Minimum Inhibition Concentrations (MICs) Test; type: cell-based, Enterococcus Faecalis; details: Enterococcus faecalis, ATCC700221
[5] = test system: E. faecalis ATCC 51559; assay: Minimum Inhibition Concentrations (MICs) Test; type: cell-based, Enterococcus Faecalis; details: Enterococcus faecalis, ATCC 51559 / VRE
[6] = test system: E. faecalis ATCC 33186; assay: Minimum Inhibition Concentrations (MICs) Test; type: cell-based, Enterococcus Faecalis; details: Enterococcus faecalis, ATCC33186
[7] = test system: S. Aureus ATCC 700699; assay: Minimum Inhibition Concentrations (MICs) Test; type: cell-based, Staphylococcus Aureus; details: Staphylococcus aureus, ATCC700699
[8] = test system: E. faecalis ATCC 51299; assay: Minimum Inhibition Concentrations (MICs) Test; type: cell-based, Enterococcus Faecalis; details: Enterococcus faecalis, ATCC 51299 / VRE

CN[C@H](CC(C)C)C(=O)N[C@H]1C(=O)N[C@@H](CC(N)=O)C(=O)N[C@H]2C(=O)N[C@H]3C(=O)N[C@H](C(=O)N[C@H](C(=O)O)c4cc(O)cc(O)c4-c4cc3ccc4O)[C@H](O)c3ccc(c(Cl)c3)Oc3cc2cc(c3O[C@@H]2O[C@H](CO)[C@@H](O)[C@H](O)[C@H]2O[C@H]2C[C@](C)(N)[C@H](O)[C@H](C)O2)Oc2ccc(cc2Cl)[C@H]1O [Compound 1, vancomycin]
MIC [1]: 1 µg/mL (≈ 0.69 µM) | MIC [2]: 1 µg/mL (≈ 0.69 µM) | whole blood bacterial counts over the 3-day period [3]: suppressed | MIC [4]: > 64 µg/mL | MIC [5]: > 32 µg/mL | MIC [6]: 4 µg/mL (≈ 2.76 µM) | MIC [7]: 16 µg/mL (≈ 11 µM) | MIC [8]: > 64 µg/mL
